# According to paper PMC8880564, “Design, Synthesis, and Biological Evaluation of a Novel VEGFR-2 Inhibitor Based on a 1,2,5-Oxadiazole-2-Oxide Scaffold with MAPK Signaling Pathway Inhibition” (Pharmaceuticals, 2022):
# What was measured:
# 786-0 = test: NCI-60 one-dose SRB screening; assay type: cell-based; settings: Homo sapiens, 786-0, Renal Cancer, 10 µM one dose, 48 h, read-out: growth percentage
# A498 = test: NCI-60 one-dose SRB screening; assay type: cell-based; settings: Homo sapiens, A498, Renal Cancer, 10 µM one dose, 48 h, read-out: growth percentage
# CCRF-CEM = test: NCI-60 one-dose SRB screening; assay type: cell-based; settings: Homo sapiens, Leukemia, 10 µM one dose, 48 h, read-out: growth percentage
# COLO 205 = test: NCI-60 one-dose SRB screening; assay type: cell-based; settings: Homo sapiens, COLO 205, Colon Cancer, 10 µM one dose, 48 h, read-out: growth percentage
# HS 578T = test: NCI-60 one-dose SRB screening; assay type: cell-based; settings: Homo sapiens, Breast Cancer, 10 µM one dose, 48 h, read-out: growth percentage
# KM12 = test: NCI-60 one-dose SRB screening; assay type: cell-based; settings: Homo sapiens, KM12, Colon Cancer, 10 µM one dose, 48 h, read-out: growth percentage
# MALME-3M = test: NCI-60 one-dose SRB screening; assay type: cell-based; settings: Homo sapiens, Melanoma, 10 µM one dose, 48 h, read-out: growth percentage
# MCF7 = test: NCI-60 one-dose SRB screening; assay type: cell-based; settings: Homo sapiens, MCF7, Breast Cancer, 10 µM one dose, 48 h, read-out: growth percentage
# MOLT-4 = test: NCI-60 one-dose SRB screening; assay type: cell-based; settings: Homo sapiens, MOLT-4, Leukemia, 10 µM one dose, 48 h, read-out: growth percentage
# NCI-H226 = test: NCI-60 one-dose SRB screening; assay type: cell-based; settings: Homo sapiens, NCI-H226, Non-Small Cell Lung Cancer, 10 µM one dose, 48 h, read-out: growth percentage
# NCI-H322M = test: NCI-60 one-dose SRB screening; assay type: cell-based; settings: Homo sapiens, Non-Small Cell Lung Cancer, 10 µM one dose, 48 h, read-out: growth percentage
# OVCAR-3 = test: NCI-60 one-dose SRB screening; assay type: cell-based; settings: Homo sapiens, OVCAR-3, Ovarian Cancer, 10 µM one dose, 48 h, read-out: growth percentage
# OVCAR-5 = test: NCI-60 one-dose SRB screening; assay type: cell-based; settings: Homo sapiens, OVCAR-5, Ovarian Cancer, 10 µM one dose, 48 h, read-out: growth percentage
# RXF 393 = test: NCI-60 one-dose SRB screening; assay type: cell-based; settings: Homo sapiens, RXF 393, Renal Cancer, 10 µM one dose, 48 h, read-out: growth percentage
# SNB-19 = test: NCI-60 one-dose SRB screening; assay type: cell-based; settings: Homo sapiens, SNB-19, CNS Cancer, 10 µM one dose, 48 h, read-out: growth percentage
# TK-10 = test: NCI-60 one-dose SRB screening; assay type: cell-based; settings: Homo sapiens, TK-10, Renal Cancer, 10 µM one dose, 48 h, read-out: growth percentage
# UACC-257 = test: NCI-60 one-dose SRB screening; assay type: cell-based; settings: Homo sapiens, UACC-257, Melanoma, 10 µM one dose, 48 h, read-out: growth percentage
# HepG2 cells = test: Cell-cycle analysis by flow cytometry (PI); assay type: cell-based, human; settings: HepG2, 48 h; 5.6 in DMSO-treated cells
# Experimental: The mechanism of action of 12b was investigated by evaluating its effectiveness in modulating the cell cycle and induction of apoptosis.
# According to Gray et al., HepG2 cells were seeded in a 6-well plate (2 mL/well) and incubated at 37 °C and 5% CO2 for 12 h. Cell synchronization at the G1 phase was performed by incubating the cells with serum-free medium for 12 h, then cells were treated with 5.5 or 11 μM of 12b. After 48 h of incubation, cells were washed twice with ice-cold 1× PBS and subjected to trypsinization. The detached cells were centrifuged at 500× g for 5 min at 4 °C. Then, the cell pellet was resuspended in ice-cold 1× PBS and fixed with absolute ethanol. After 2 h of incubation at −20 °C, the fixed cells were washed with ice-cold 1× PBS. The cell pellet was resuspended in propidium (PI)/RNase (BD Biosciences, BDB550825, Franklin Lakes, NJ, USA) and incubated for 30 min at room temperature (RT) in the dark, then the DNA content in each phase was measured by flow cytometry using BD FACS Calibur.
Compound,activity at 10 µM (786-0) [%],activity at 10 µM (A498) [%],activity at 10 µM (CCRF-CEM) [%],activity at 10 µM (COLO 205) [%],activity at 10 µM (HS 578T) [%],activity at 10 µM (KM12) [%],activity at 10 µM (MALME-3M) [%],activity at 10 µM (MCF7) [%],activity at 10 µM (MOLT-4) [%],activity at 10 µM (NCI-H226) [%],activity at 10 µM (NCI-H322M) [%],activity at 10 µM (OVCAR-3) [%],activity at 10 µM (OVCAR-5) [%],activity at 10 µM (RXF 393) [%],activity at 10 µM (SNB-19) [%],activity at 10 µM (TK-10) [%],activity at 10 µM (UACC-257) [%],cell-cycle arrest at subG1 (HepG2 cells)
"[O-][n+]1onc(-c2ccccc2)c1CNc1ccc(Nc2nc(C(F)(F)F)nc3c2cnn3-c2ccc(Br)cc2)cc1 [12b, 3-(((4-((1-(4-bromophenyl)-6-(trifluoromethyl)-1H-pyrazolo[3,4-d]pyrimidin-4-yl)amino)phenyl)amino)methyl)-4-phenyl-1,2,5-oxadiazole 2-oxide]",67.2,97.4,48.5,74.6,77.6,41.2,93.5,38.8,47,77,74.1,92,77.2,51.2,78.9,86.8,102,24
"Cc1nn(-c2ccc(Br)cc2)c2ncnc(Nc3ccc(OCc4c(-c5ccccc5)no[n+]4[O-])cc3)c12 [6g, 3-((4-((1-(4-bromophenyl)-3-methyl-1H-pyrazolo[3,4-d]pyrimidin-4-yl)amino)phenoxy)methyl)-4-phenyl-1,2,5-oxadiazole 2-oxide]",122,106,98.1,117,93.4,98.6,91.6,89,97.7,89.9,94.5,112,99.3,131,99.2,123,97.1,–
"[O-][n+]1onc(-c2ccccc2)c1COc1ccc(Nc2ncnc3c2cnn3-c2ccccc2)cc1 [6a, 4-phenyl-3-((4-((1-phenyl-1H-pyrazolo[3,4-d]pyrimidin-4-yl)amino)phenoxy)methyl)-1,2,5-oxadiazole 2-oxide]",115,103,91,104,98.7,103,90,96.1,87.4,111,109,95.9,110,98.4,105,103,98.9,–
"Cc1nn(-c2ccccc2)c2nc(C(F)(F)F)nc(Nc3ccc(NCc4c(-c5ccccc5)no[n+]4[O-])cc3)c12 [12a, 3-(((4-((3-methyl-1-phenyl-6-(trifluoromethyl)-1H-pyrazolo[3,4-d]pyrimidin-4-yl)amino)phenyl)amino)methyl)-4-phenyl-1,2,5-oxadiazole 2-oxide]",92.4,94.4,59.2,73.6,77.9,56.7,91,58.5,56.4,85.6,77.6,105,93.7,86.8,88,94.4,103,–
"Cc1nn(-c2ccccc2)c2ncnc(Nc3ccc(OCc4c(-c5ccccc5)no[n+]4[O-])cc3)c12 [6c, 3-((4-((3-methyl-1-phenyl-1H-pyrazolo[3,4-d]pyrimidin-4-yl)amino)phenoxy)methyl)-4-phenyl-1,2,5-oxadiazole 2-oxide]",107,86.3,97.4,116,97.5,99.8,98.2,83,92.9,97.3,91,105,104,112,101,110,105,–
"Cc1nc(Nc2ccc(OCc3c(-c4ccccc4)no[n+]3[O-])cc2)c2cnn(-c3ccccc3)c2n1 [6b, 3-((4-((6-methyl-1-phenyl-1H-pyrazolo[3,4-d]pyrimidin-4-yl)amino)phenoxy)methyl)-4-phenyl-1,2,5-oxadiazole 2-oxide]",95.8,102,102,114,110,102,99.3,92.4,117,94.7,99.5,109,106,111,99.3,94.8,101,–
"Cc1nn(-c2ccc(Br)cc2)c2nc(CNc3ccc(NCc4c(-c5ccccc5)no[n+]4[O-])cc3)[nH]c(=O)c12 [14c, 3-(((4-(((1-(4-bromophenyl)-3-methyl-4-oxo-4,5-dihydro-1H-pyrazolo[3,4-d]pyrimidin-6-yl)methyl)amino)phenyl)amino)methyl)-4-phenyl-1,2,5-oxadiazole 2-oxide]",119,104,105,115,108,106,92.5,88.1,87.2,109,104,93.9,110,117,102,132,101,–
